Reference: patent EP0407651A2, “Use of 1,3-diisobutyl-8-methylxanthine as a bronchodilator and antiallergy agent” (J. URIACH & CIA. S.A., priority 1989, dated 1991)

Assays:
[1] = test system: Passive cutaneous anaphylaxis reaction (PCA); assay: Passive cutaneous anaphylaxis reaction (PCA) in the rat; format: in vivo; details: 30 minutes before egg albumin and Evans' blue challenge
Method: The animals were passively sensitized by intradermal injection of 0.1 mL of five-fold diluted rat reagenic antiserum. Injections were made at 4 locations on the shaved back skin and 48 h later the test drug was administered intraperitoneally. Thirty minutes later, the animals were challenged by intravenous injection of egg albumin and Evans' blue dye. The dermal reaction was measured colorimetrically by the method of Harata (J.Pharm.Pharmac., 1971, 23, 218) as the extent of the blueing reaction at the sensitized intradermal injection site, and the percent inhibition values with respect to controls were calculated (Table 3).

[2] = test system: Isolated guinea pig trachea; assay: Isolated guinea pig trachea relaxation (spontaneous tonus, organ bath); format: cell-based; details: Cavia porcellus; 50% relaxation of spontaneous tonus; relaxation by 1 mcM isoprenaline = 100%; read-out: Guinea pig trachea EC₅₀
Method: This in vitro test was carried out according to the method of Emmerson and Mackay (J. Pharm. Pharmacol. 1979, 31, 798). The trachea was excised from guinea pigs, placed in Krebs Henseleit's solution at 37°C and gassed with 95% O₂ and 5% CO₂. The trachea strip was mounted in an organ bath and attached to a tension transducer preloaded with […]. Test compounds were cumulatively added to the organ bath and concentrations causing 50% relaxation of the spontaneous tonus of the tracheal tissue (EC₅₀) were calculated (Table 1). The relaxation induced by 1 mcM isoprenaline was taken as 100%.

[3] = test system: Histamine aerosol-induced bronchospasm; assay: Histamine aerosol-induced bronchospasm in conscious guinea pigs (protection from death); format: in vivo; details: for Histamine bronchospasm Hist. aerosol PC₅₀ (inhal) / Histamine bronchospasm Hist. aerosol PD₅₀ (oral): conscious guinea pigs; for Histamine bronchospasm Hist. aerosol PC₅₀ (inhal): ethanolic solution nebulized 1 mL/min for 2 min, histamine challenge 3 min later, concentration protecting 50% from lethality; for Histamine bronchospasm Hist. aerosol PD₅₀ (oral): one hour before histamine aerosol (0.2%), dose protecting 50% of animals from death; for Protection from death % / Protection from death n/N: formulation B by inhalation; for Protection from death n/N: survivors versus total number of animals
Method: This test is based on the methods of Van P+roosdif-Hartzema (Inter. Ppharmacodynamic 1958, 115, 322) and Loew (J. Pharmac.Exp.Ther. 1945, 83, 120) with slight modifications. Thus, conscious guinea pigs were subjected to inhalation of histamine (0.2% aqueous solution) nebulized by an ultrasonic device (DeVilvis™, Ultra-Neb 99) during 30 seconds in a cylindric plastic chamber of 15 liters of volume, at a rate of 1 mL/min. Test compounds were given orally, one hour before the challenge of histamine, and the dose needed to protect from death 50% of the animals was determined (PD₅₀) (Table 1).
Using the same model, test compounds were also given by inhalation. They were dissolved in ethanol at different concentrations (0.45 mM to 28mM) and aerosolized by the ultrasonic nebulizer mentioned above at a rate of 1 mL/min, during 2 minutes. Three minutes later, the animals were subjected to the challenge of histamine and PC₅₀ values were determined (Table 1). Controls were subjected to inhalation of the vehicle (ethanol). PC₅₀ value is defined as the concentration of test compound in the ethanolic solution that protects 50% of animals from lethality when nebulized as indicated above.
Finally, studies have been made subjecting the animals to inhalation of one or more puffs of 5 mg/mL of 1,3-diisobutyl-8-methylxanthine (UR-6032) solution formulation B (see Example 1). Animals were forced to inhale UR-6032 for 5 minutes into the cylindric plastic chamber before the challenge with ultrasonic nebulized histamine (see above) and protection from death with respect to controls was determined (Table 2).

[4] = test system: Egg albumin-induced bronchospasm in sensitized guinea pigs; assay: Egg albumin-induced bronchospasm in sensitized guinea pigs (Konzett and Rössler); format: in vivo; details: egg albumin 0.06% w/v, 1 mL/Kg i.v., one minute after test compound
Method: The experimental procedure of Konzett and Rössler was followed (Arch. Exp. Pathol.Pharmacol. 1940, 195, 71). A single intravenous injection of 1 mL/Kg of egg albumin (0.06%, w/v) was given to sensitized animals one minute after intravenous administration of UR-6032 at different concentrations.

[5] = Acute oral toxicity in rats; format: in vivo; details: both sexes rats
[6] = test system: rat peritoneal mast cell preparations; assay: Histamine release induced by compound 48/80 in rat mast cell preparations; format: cell-based; details: 20 min, 1 mM test compound, compound 48/80 10⁻⁶ M, 37°C, read-out: Histamine release % inhib. at 1 mM
Method: Anaesthetized rats were bled by cardiac puncture and then 10 mL of Tyrode's-gel solution (0.1% gelatine in Tyrode's buffer, pH 7.2) containing 50 mcg heparin was injected into the peritoneal cavity. Alter a gentle massage of the abdomen, the peritoneal cell suspension was harvested. Mast cells were suspended in Tyrode's solution (10⁶ cells/mL). Aliquots of 0.2 mL of the mast cell suspension were incubated at 37°C for 20 minutes with 10 mcL of compound 48/80 (10⁻⁶ M final concentration), a potent histamine release inducer. The reaction was stopped by introducing the tubes in a ice-ethanol bath. The cells were sedi-mented by centrifugation and the histamine in the supernatant was determined by the fluorimetric method of May (J. Allergy, 1970, 46, 12). The sedimented pellets were treated with 0.1 N HCl at 100°C to liberate the non-released histamine and to determine it by the same method of May. Test compounds were added to the incubation medium dissolved in Tyrode's buffer at different concentrations (final volume: 1 mL). Control samples contained the same volume of Tyrode's buffer. The histamine release in the control samples was taken as 100%, and the percentage of the histamine release inhibition of test samples was calculated with respect to controls. (Table 3).

[7] = test system: Histamine-induced bronchospasm in anaesthetized guinea pigs; assay: Histamine-induced bronchospasm in anaesthetized guinea pigs (Konzett and Rössler); format: in vivo; details: histamine 10 mcg/Kg i.v., test compound i.p., maximum inhibitory effect at 10, 30, 60 min
Method: This test was performed in anaesthetized animals according to the method of Konzett and Rössler (Arch. Exp. Pathol.Pharmacol. 1940, 195, 71). The activity was determined by calculating the dose of the active compound required to produce 50% inhibition of the bronchospasm (ID₅₀) (Table 1). Histamine was given intravenously at 10 mcg/Kg, before and 10, 30 and 60 minutes after intraperitoneal administration of test compounds. Maximum inhibitory effects were taken for calculation of ID₅₀ values.

SMILES	PCA % inhibition at 2.5 mg/Kg,i.p. [1] [%]	EC50 [2] [nM]	Histamine bronchospasm Hist. aerosol PC₅₀ (inhal) [3]	Histamine bronchospasm Hist. aerosol PD₅₀ (oral) [3] [mg/kg]	Protection from death % ([3]; 1 puff) [%]	Protection from death n/N ([3]; 1 puff)	Protection from death % ([3]; 2 puffs) [%]	Protection from death n/N ([3]; 2 puffs)	Protection from death % ([3]; 3 puffs) [%]	Protection from death n/N ([3]; 3 puffs)	active doses given by inhalation ([3]; inhalation) [mg/animal]	Egg albumin bronchospasm ID₅₀ [4]	acute oral toxicity [5] [mg/kg]	inhibition at 1000 µM [6] [%]	Histamine bronchospasm Hist. i.v. ID₅₀ [7]
Cc1nc2c([nH]1)c(=O)n(CC(C)C)c(=O)n2CC(C)C [UR-6032, 1,3-diisobutyl-8-methylxanthine]	39	100	0.5 mM	1	80	4/5	100	3/3	100	3/3	< 0.5	0.5-1 mg/Kg,i.p.	50	56	0.36 mg/Kg,i.p.
Cn1c(=O)c2[nH]cnc2n(C)c1=O [Theophylline, 1,3-dimethylxanthine]	8	31000	25 mM	> 100	–	–	–	–	–	–	–	–	–	25	4.90 mg/Kg,i.p.
CC(C)Cn1c(=O)n(C)c(=O)c2[nH]cnc21 [IBMX, 1-methyl-3-isobutylxanthine]	86	1100	^b 15-20 mM	–	–	–	–	–	–	–	–	–	–	37	2.50 mg/Kg,i.p.
